Test results: patent US7964738B2, “Pharmaceutical compositions and methods of use of lipophilic, silicon-substituted, cyclooxygenase-2 selective non-steroidal anti-inflammatory drugs and derivatives” (Silamed, Inc., priority 2004, dated 2011)

What was measured:
Recombinant human COX-2 = biological target: T1, Recombinant human COX-2 (Homo sapiens, UniProt P35354); experiment: Recombinant human COX-2 enzyme assay (PGE2 by EIA); assay type: biochemical; settings: preincubation 5 min at 22° C., 2 μM arachidonic acid
T1 sequence (P35354 18-604): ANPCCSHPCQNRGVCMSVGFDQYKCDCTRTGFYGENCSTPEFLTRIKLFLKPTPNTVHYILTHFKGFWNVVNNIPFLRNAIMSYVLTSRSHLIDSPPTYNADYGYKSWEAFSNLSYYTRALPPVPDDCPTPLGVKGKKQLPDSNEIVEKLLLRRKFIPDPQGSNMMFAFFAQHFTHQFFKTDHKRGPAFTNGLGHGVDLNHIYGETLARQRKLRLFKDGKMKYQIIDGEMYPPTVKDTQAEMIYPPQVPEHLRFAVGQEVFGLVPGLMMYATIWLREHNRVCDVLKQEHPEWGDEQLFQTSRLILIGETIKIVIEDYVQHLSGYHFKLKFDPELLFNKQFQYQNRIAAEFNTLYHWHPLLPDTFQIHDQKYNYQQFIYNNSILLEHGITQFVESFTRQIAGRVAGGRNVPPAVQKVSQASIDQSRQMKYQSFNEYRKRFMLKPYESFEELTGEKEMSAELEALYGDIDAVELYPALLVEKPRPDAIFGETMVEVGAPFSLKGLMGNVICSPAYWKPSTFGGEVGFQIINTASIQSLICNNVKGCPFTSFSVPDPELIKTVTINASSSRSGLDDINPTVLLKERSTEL
Description: (§1) Recombinant human enzymes were reconstituted in buffer (100 mM Tris, pH 7.8 at 37° C.) containing 0.5 mM phenol (964 μl total volume). The enzyme preparations were preincubated with vehicle (DMSO) or compounds of the invention in DMSO (1% DMSO in final assay) for 10 min at 25° C. for COX-1 and 5 min at 22° C. for COX-2. Excess hematin was added 1 min prior to initiation of reaction (1.25 μM final hematin) with 4 μM (COX-1) and 2 μM (COX-2) arachidonic acid (sodium salt). The final assay volume was 1.0 ml (100 mM Tris (pH 7.8), 0.5 mM phenol, 1.25 μM hematin and arachidonic acid at 37° C.). The reaction was incubated for 35 s (maximum level of COX-2 accumulation as determined from time course studies), and terminated by addition of 50-60 μl of SnCl2 (1 mg/ml) in 0.1 N HCl. PGE2 production in the presence or absence of the drug was determined by Enzyme Immunoassay (EIA) analysis as described.
(§2) EIA Determination of Prostaglandins
(§3) EIA reagents for prostaglandin determination were purchased from commercial sources. PGE2 levels in enzyme assays were measured against standards prepared in the same milieu using standard methods. The EIA was conducted in 96-well micotiter plates and optical density measured using a microplate reader by standard methods.

[1] = test system: human MiaPaCa-2 pancreatic cancer cells; experiment: In vitro cellular proliferation assay (SRB); assay type: cell-based; settings: MIA PaCa-2, 72 h, 3 days incubation, starting concentration 100 μM, read-out: IC50 (growth inhibition, MiaPaCa-2)
Description: In vitro cell proliferation assays were performed using a 96-well plate based SRB (Sulforhodamine-B) assay. Briefly, human MiaPaCa-2 pancreatic cancer cells were plated in 100 μl medium on day 0 in 96-well microtiter plates (Falcon #3072). On day 1, 10 μl of serial dilutions of each compound (Nine 1:2 dilutions with a starting concentration of 100 μM) were added in triplicates to the plates. As a vehicle control, serial dilutions of DMSO with a starting concentration of 0.5% were also included. After incubation for 3 days at 37° C. in a humidified incubator, cells were fixed in situ with 50 μL of cold trichloroacetic acid (TCA, final concentration at 10% w/v) for 60 minutes. Cells were then washed 5 times with H2O and air-dried. Next, cells were stained with 20 μL of 0.2% SRB in 1% acetic acid and incubated at room temperature for 30 minutes and unbound SRB was removed by washing 5 times with 1% acetic acid and air-dried. Finally, bound SRB stain was solubilized in 50 μL of 50 μM Tris buffer before taking an optical density measurement at 570 nm using a BioTek Synergy™ HT Multiple Detection microplate reader. The growth inhibition data were expressed as the percentage of cell survival calculated from the background corrected absorbance. The surviving fraction of cells was determined by dividing the mean absorbance values of the test agent-treated samples by the mean absorbance values of untreated control.

Recombinant human COX-1 = Recombinant human COX-1 (Homo sapiens, UniProt P23219); experiment: Recombinant human COX-1 enzyme assay (PGE2 by EIA); assay type: biochemical
Chain of Recombinant human COX-1 (P23219 24-599): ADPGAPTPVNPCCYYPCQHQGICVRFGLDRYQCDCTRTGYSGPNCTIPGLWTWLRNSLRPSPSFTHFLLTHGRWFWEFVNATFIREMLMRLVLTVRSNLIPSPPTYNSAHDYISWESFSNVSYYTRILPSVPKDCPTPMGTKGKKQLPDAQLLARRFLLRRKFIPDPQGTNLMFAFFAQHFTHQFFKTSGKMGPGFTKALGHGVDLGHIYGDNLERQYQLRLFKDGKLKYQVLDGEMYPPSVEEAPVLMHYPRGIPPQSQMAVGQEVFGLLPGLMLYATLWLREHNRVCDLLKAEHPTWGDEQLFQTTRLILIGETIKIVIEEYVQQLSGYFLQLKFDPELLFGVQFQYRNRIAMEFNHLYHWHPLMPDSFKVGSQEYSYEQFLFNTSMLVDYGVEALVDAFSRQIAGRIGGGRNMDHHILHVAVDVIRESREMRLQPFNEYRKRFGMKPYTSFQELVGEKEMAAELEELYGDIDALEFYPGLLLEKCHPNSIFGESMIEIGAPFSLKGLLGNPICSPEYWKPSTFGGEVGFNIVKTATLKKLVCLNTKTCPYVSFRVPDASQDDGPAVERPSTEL
Description: as §1, with “Excess hematin was added 1 min prior to initiation of reaction (1.25 μM final hematin) with 4 μM (COX-1) and 2 μM (COX-2) arachidonic acid (sodium salt). The final assay volume was 1.0 ml (100 mM Tris (pH 7.8), 0.5 mM phenol, 1.25 μM hematin and arachidonic acid at 37° C.).” left out
as §2, §3

| Structure (SMILES) | IC50 (Recombinant human COX-2) | IC50 [1] | IC50 (Recombinant human COX-1) | melting point |
| --- | --- | --- | --- | --- |
| COc1ccc2c(c1)c(CC(=O)NCCC[Si](C)(C)C)c(C)n2C(=O)c1ccc(Cl)cc1 [Example 1, 2-(1-(4-chlorobenzoyl)-5-methoxy-2-methyl-1H-indol-3-yl)-N-(3-(trimethylsilyl)propyl)acetamide] | 0.21 µM | 6.6 µM | > 10 µM | 97 to 101 °C |
| COc1ccc2c(c1)c(CC(=O)NC[Si](C)(C)C)c(C)n2C(=O)c1ccc(Cl)cc1 [Example 2, 2-(1-(4-chlorobenzoyl)-5-methoxy-2-methyl-1H-indol-3-yl)-N-((trimethylsilyl)methyl)acetamide] | 0.39 µM | 14.3 µM | 2.7 µM | 163 to 165 °C |
| COc1ccc2c(c1)c(CC(=O)NC[Si](C)(C)c1ccccc1)c(C)n2C(=O)c1ccc(Cl)cc1 [Example 3, 2-(1-(4-chlorobenzoyl)-5-methoxy-2-methyl-1H-indol-3-yl)-N-((dimethyl(phenyl)silyl)methyl)acetamide] | 0.31 µM | 4.8 µM | > 10 µM | 121 to 124 °C |
| CCO[Si](CCCNC(=O)Cc1c(C)n(C(=O)c2ccc(Cl)cc2)c2ccc(OC)cc12)(OCC)OCC [Example 4, 2-(1-(4-chlorobenzoyl)-5-methoxy-2-methyl-1H-indol-3-yl)-N-(3-(triethoxysilyl)propyl)acetamide] | 0.57 µM | 20 µM | 5 µM | 71 to 73 °C (dec.) |
| COc1ccc2c(c1)c(CC(=O)O)c(C)n2C(=O)c1ccc(Cl)cc1 [Indomethacin, reference compound] |  | > 100 µM |  |  |
